# Key:
# [1] = system: A549 cells; assay: flow cytometer cell cycle analysis; type: cell-based, human; conditions: in comparison with non-treated samples, p<0.01
# [2] = system: A549 cells; assay: cytoskeleton and nuclei staining, confocal microscope; type: cell-based, human; conditions: 24 hours, taxol 50 nM
smiles,measurement,setting,value
CC(=O)O[C@H]1C(=O)[C@@]2(C)[C@H]([C@H](OC(=O)c3ccccc3)[C@]3(O)C[C@H](OC(=O)[C@H](O)[C@@H](NC(=O)c4ccccc4)c4ccccc4)C(C)=C1C3(C)C)[C@]1(OC(C)=O)CO[C@@H]1C[C@@H]2O [taxol],G1/G0 cell population,[1],significantly reduced
same,mitosis of the cells,[2]; carrier 100 μg/mL,significantly enhancing mitosis
same,"effect on microtubules, spindle and chromosomes",[2]; carrier or ND 100 μg/mL,"induced polymerization of microtubules, inhibited formation of spindle, and inhibited separation of chromosomes"
